Where a name gives a salt, the structure may show the parent alone.
What was measured:
NF-κB [1] = assay: 293-cell pNF-κB-luc reporter assay, TNF-α induced; type: cell-based; conditions: HEK293 cells, NF-κB driven luciferase expression, read-out: 293/NFkB-luc EC50
Protocol: (§1) Inhibition of NF-κB in cells by the compound of Example 1. Two reporter cell assays were used to determine the ability of the compound of Example 1 to inhibit NE-KB driven transcription. The first assay was a 293-cell based assay with a stably integrated pNF-κB-luc reporter plasmid containing 3 NF-κB promoter elements. The second assay was a 293-cell based assay with a stably integrated pTRH1-NF-κB-dscGFP reporter containing 4 NF-κB promoter elements. Cells were treated with 0, 0.2, 1, 10, 20 and 40 μM of the compound of Example 1 for 2 hours then were induced with 20 ng/ml TNF-α for 18 hours. Following the induction, luminescence or fluorescence was quantified using a Beckman-Coulter 2300 plate reader. […] These values represent the median value generated from three independent experiments±the standard error. As a control, 0.5% DMSO treated and untreated cells were compared to verify that the Example 1 carrier had no effect on the expression of luciferase or in the readout of the assay. There was a slight decrease in the output from the assay in the DMSO treated population although it was not statistically significant. As a result of the controls, the decrease in activity in the drug treated samples was compared to the DMSO control sample.

NF-κB [2] = assay: 293-cell pTRH1-NF-κB-dscGFP reporter assay, TNF-α induced; type: cell-based; conditions: Homo sapiens, HEK293, HEK293 cells, NF-κB driven GFP expression; read-out: NF-kB/293/GFP EC50
Protocol: as §1

[3] = test system: IL-6 release from RAW264.7 cells; assay: IL-6 release from LPS stimulated RAW264.7 cells; type: cell-based, mouse
Protocol: Specifically, A and B show the effects of the compound of Example 1 on soluble PGE2 and Il-6 secretion from RAW264.7 cells stimulated by 1 μg/mL of LPS. The cells were treated with the indicated concentrations of the compound of Example 1 for 2 hours, and then LPS was added and incubation continued for 4 hours. […]

p50 = target: T1, p50 (Homo sapiens, UniProt P19838); assay: TransAM NF-κB Family DNA Binding ELISA, p50; conditions: for IC50: p50 binding IC50 (uM), cells without % sign; for inhibition at 5 µM: read-out: p50 binding % inhibit. at 5 uM
T1 sequence (P19838 1-433 limits assumed): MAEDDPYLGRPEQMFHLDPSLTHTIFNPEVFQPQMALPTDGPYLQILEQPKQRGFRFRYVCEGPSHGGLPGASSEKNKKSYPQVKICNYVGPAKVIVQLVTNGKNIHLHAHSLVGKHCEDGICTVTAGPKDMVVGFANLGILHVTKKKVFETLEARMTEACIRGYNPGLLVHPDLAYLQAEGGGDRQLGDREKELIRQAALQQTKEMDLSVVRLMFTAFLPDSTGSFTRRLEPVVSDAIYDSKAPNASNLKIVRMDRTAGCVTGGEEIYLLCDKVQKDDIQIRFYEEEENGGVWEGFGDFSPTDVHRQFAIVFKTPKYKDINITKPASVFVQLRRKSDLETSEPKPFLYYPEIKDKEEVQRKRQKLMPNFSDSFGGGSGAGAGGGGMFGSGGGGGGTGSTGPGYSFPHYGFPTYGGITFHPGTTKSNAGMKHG

p52 = target: T2, p52 (Homo sapiens, UniProt Q00653); assay: TransAM NF-κB Family DNA Binding ELISA, p52; conditions: for IC50: p52 binding IC50 (uM), cells without % sign; for inhibition at 5 µM: read-out: p52 binding % inhibit. at 5 uM, at 5 uM
T2 sequence (Q00653 1-454 limits assumed): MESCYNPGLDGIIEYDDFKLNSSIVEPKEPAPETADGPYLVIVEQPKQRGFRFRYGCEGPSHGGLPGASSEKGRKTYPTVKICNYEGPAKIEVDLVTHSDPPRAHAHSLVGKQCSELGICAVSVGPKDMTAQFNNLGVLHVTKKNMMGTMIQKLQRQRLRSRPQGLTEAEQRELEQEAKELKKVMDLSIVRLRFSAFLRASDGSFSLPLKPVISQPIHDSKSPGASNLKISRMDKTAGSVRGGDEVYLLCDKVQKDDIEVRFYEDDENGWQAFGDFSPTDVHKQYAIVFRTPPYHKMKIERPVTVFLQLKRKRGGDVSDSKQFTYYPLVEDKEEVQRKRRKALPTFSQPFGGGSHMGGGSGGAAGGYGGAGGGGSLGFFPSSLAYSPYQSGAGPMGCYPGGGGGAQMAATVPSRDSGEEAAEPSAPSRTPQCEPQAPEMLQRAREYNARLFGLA
Protocol: (§2) Treated samples were then transferred to 30 μL Complete Binding Buffer (with DTT) in microplate wells pre-coated with the NF-κB consensus oligonucleotide. […] The plate was incubated for 1 hour at room temperature with gentle shaking and then washed 3 times with 200 μL 1× Wash Buffer. NF-κB p65, p50, p52, RelB, or c-Rel subunits bound to the plate were detected with 100 μL of the primary antibody (diluted 1:1000 in 1× Antibody Buffer) specific for that subunit. The plate was incubated for 1 hour at room temperature and then washed 3 times with 200 μL 1× Wash Buffer. Next, 100 μL of a HRP conjugated goat anti-rabbit antibody (diluted 1:1,000 in 1× Antibody Buffer) was added to each well. The plate was incubated for 1 hour at room temperature and then washed 4 times with 200 μL 1× Wash Buffer. 100 μL of room temperature Developing Solution was added to each well. The reaction was allowed to develop for 2-10 minutes until a medium dark blue color developed (depending on the subunit activity in the lot of extract or lot of recombinant protein used) and then the reaction was stopped with 100 μL Stop Solution yielding a yellow color. Absorbance was recorded using a Becton-Dickinson DTX 880 Multimode Detector at 450 nm with a reference wavelength subtracted at 620 nm.

RelB = target: T3, RelB (Homo sapiens, UniProt Q01201); assay: TransAM NF-κB Family DNA Binding ELISA, RelB; conditions: for inhibition at 5 µM: read-out: RelB binding % inhibit. at 5 uM, at 5 uM; for IC50: RelB binding IC50 (uM), cells without % sign
T3 sequence (Q01201 1-579): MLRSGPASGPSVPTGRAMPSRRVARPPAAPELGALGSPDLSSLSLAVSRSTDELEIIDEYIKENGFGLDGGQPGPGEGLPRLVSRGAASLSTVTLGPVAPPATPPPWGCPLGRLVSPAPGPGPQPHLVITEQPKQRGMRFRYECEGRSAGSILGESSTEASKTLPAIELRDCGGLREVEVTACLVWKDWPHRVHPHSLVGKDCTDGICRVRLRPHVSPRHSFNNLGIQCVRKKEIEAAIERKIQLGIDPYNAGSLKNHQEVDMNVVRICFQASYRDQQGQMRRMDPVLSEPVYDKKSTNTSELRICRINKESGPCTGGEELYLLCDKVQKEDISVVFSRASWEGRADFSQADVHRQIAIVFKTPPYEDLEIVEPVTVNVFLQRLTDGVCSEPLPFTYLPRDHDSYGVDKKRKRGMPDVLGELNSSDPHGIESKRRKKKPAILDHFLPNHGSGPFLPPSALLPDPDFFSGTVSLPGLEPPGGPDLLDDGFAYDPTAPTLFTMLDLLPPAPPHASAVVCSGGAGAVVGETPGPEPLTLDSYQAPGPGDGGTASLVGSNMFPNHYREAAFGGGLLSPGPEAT
T3 sequence (Q00653 1-454 partner limits assumed): T2 sequence (Q00653 1-454 limits assumed)

c-Rel = target: T4, c-Rel (Homo sapiens, UniProt Q04864); assay: TransAM NF-κB Family DNA Binding ELISA, c-Rel; conditions: for inhibition at 5 µM: read-out: c-Rel binding % inhibit. at 5 uM, at 5 uM; for IC50: c-Rel binding IC50 (uM), cells without % sign
T4 sequence (Q04864 2-619 limits assumed): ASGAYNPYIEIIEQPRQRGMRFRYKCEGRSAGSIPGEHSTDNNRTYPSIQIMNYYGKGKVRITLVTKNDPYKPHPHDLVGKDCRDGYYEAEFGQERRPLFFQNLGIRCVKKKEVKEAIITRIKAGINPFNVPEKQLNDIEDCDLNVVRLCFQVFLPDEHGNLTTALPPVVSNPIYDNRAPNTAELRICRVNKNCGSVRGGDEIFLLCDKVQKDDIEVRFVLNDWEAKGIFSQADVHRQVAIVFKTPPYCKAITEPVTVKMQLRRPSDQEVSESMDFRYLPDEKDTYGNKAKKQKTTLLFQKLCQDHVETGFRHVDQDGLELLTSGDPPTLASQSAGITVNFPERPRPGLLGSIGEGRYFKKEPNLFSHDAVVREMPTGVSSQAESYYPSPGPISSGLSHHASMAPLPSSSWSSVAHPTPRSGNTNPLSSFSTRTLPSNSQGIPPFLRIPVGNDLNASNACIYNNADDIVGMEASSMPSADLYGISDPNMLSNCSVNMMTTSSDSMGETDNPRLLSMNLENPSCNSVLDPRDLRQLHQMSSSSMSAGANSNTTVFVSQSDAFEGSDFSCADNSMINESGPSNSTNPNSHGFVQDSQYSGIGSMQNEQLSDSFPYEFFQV
Protocol: as §2

p65 (RelA) = p65 (RelA) (Homo sapiens, UniProt Q04206); assay: TransAM NF-κB Family DNA Binding ELISA, p65; conditions: p65 binding IC50 (uM), binding to NF-κB sites
[4] = Mus musculus, RAW264.7, RAW 264.7 cells
[5] = RAW 264.7 cells, trifluoroacetate

Chain of p65 (RelA) (Q04206 whole entry): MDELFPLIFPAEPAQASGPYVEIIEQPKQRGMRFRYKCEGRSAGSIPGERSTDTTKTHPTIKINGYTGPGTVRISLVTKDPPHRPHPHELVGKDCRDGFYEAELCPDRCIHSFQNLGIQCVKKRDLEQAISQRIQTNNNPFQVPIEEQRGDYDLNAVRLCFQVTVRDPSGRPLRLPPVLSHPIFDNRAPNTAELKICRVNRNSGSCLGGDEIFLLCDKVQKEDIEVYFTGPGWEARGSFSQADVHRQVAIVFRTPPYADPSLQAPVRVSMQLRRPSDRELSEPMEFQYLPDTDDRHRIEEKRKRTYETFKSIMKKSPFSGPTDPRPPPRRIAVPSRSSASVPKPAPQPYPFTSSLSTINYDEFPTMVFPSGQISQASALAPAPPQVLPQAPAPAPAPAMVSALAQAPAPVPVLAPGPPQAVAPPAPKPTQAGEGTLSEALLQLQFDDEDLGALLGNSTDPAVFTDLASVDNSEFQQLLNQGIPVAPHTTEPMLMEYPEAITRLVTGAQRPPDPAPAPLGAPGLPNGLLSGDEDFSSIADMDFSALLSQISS

Structure (SMILES)	EC50 (NF-κB [1])	EC50 (NF-κB [2])	EC50 ([3]; RAW 264.7 cells)	IC50 (p50)	IC50 (p52)	RelB binding % inhibit. at 5 uM (RelB)	c-Rel binding % inhibit. at 5 uM (c-Rel)	EC50 [3, 4]	IC50 (p65 (RelA))	inhibition at 5 µM (RelB)	inhibition at 5 µM (c-Rel)	EC50 (NF-κB [1]; trifluoroacetate)	EC50 [3, 5]	IC50 (RelB)	IC50 (c-Rel)	inhibition at 5 µM (p50)	inhibition at 5 µM (p52)	p52 binding % inhibit. at 5 uM (p52; at 5 uM)
O=C(NC1=CC(=O)C2OC2C1O)c1ncccc1O (racemic) [Example 3, (±)-3-hydroxy-N-(2-hydroxy-5-oxo-7-oxabicyclo[4.1.0]hept-3-en-3-yl)picolinamide]	15 µM	3.4 µM	1400 nM	> 636 µM	301 µM	0%	15%	–	–	–	–	–	–	–	–	–	–	–
O=C(NC1=CC(=O)C2OC2C1O)c1cnccc1O (racemic) [Example 4, (±)-4-hydroxy-N-(2-hydroxy-5-oxo-7-oxa-bicyclo[4.1.0]hept-3-en-3-yl)-nicotinamide]	> 51 µM	40 µM	–	118 µM	365 µM	–	–	> 51000 nM	5 µM	21%	23%	–	–	–	–	–	–	–
COc1ncccc1C(=O)NC1=CC(=O)C2OC2C1O (racemic) [Example 21, (±)-N-(2-hydroxy-5-oxo-7-oxa-bicyclo[4.1.0]hept-3-en-3-yl)-2-methoxy-nicotinamide trifluoroacetate]	–	–	–	22 µM	22 µM	–	–	–	0.55 µM	–	–	5.8 µM	380 nM	1.5 µM	1.1 µM	–	–	–
COc1ncccc1C(=O)NC1=CC(=O)C2OC2C1O (racemic) [Example 16, (±)-N-(2-hydroxy-5-oxo-7-oxa-bicyclo[4.1.0]hept-3-en-3-yl)-2-methoxy-nicotinamide]	7.1 µM	1.2 µM	–	20 µM	3.7 µM	–	–	640 nM	0.88 µM	–	–	–	–	1.7 µM	0.8 µM	–	–	–
COc1nccnc1C(=O)NC1=CC(=O)C2OC2C1O (racemic) [Example 26, (±)-3-methoxy-pyrazine-2-carboxylic acid (2-hydroxy-5-oxo-7-oxa-bicyclo[4.1.0]hept-3-en-3-yl)-amide]	16 µM	11 µM	–	246 µM	84 µM	–	–	1600 nM	4.7 µM	–	–	–	–	12 µM	14 µM	–	–	–
COc1cccnc1C(=O)NC1=CC(=O)C2OC2C1O (racemic) [Example 20, (±)-3-methoxy-pyridine-2-carboxylic acid (2-hydroxy-5-oxo-7-oxa-bicyclo[4.1.0]hept-3-en-3-yl)-amide]	9.6 µM	7.7 µM	1400 nM	–	–	–	–	–	5.8 µM	29%	40%	–	–	–	–	1%	18%	–
O=C(NC1=CC(=O)C2OC2C1O)c1nc2ccccc2cc1O (racemic) [Example 15, (±)-3-hydroxy-quinoline-2-carboxylic acid-(2-hydroxy-5-oxo-7-oxa-bicyclo[4.1.0]hept-3-en-3-yl)-amide]	11 µM	4.9 µM	–	–	–	–	–	1000 nM	488 µM	0%	6%	–	–	–	–	0%	0%	–
O=C(NC1=CC(=O)C2OC2C1O)c1cnc(N2CCCCC2)nc1O (racemic) [Example 11, (±)-4-hydroxy-2-piperidin-1-yl-pyrimidine-5-carboxylic acid (2-hydroxy-5-oxo-7-oxa-bicyclo[4.1.0]hept-3-en-3-yl)-amide]	15 µM	5.8 µM	–	–	–	–	–	7700 nM	4.6 µM	18%	40%	–	–	–	–	4%	9%	–
O=C(NC1=CC(=O)C2OC2C1=O)c1cc2ccccc2nc1O (racemic) [Example 28, (±)-N-(2,5-dioxo-7-oxabicyclo[4.1.0]hept-3-en-3-yl)-2-hydroxyquinoline-3-carboxamide]	2.7 µM	4.2 µM	–	20 µM	9.6 µM	–	–	190 nM	3 µM	–	–	–	–	3 µM	4.5 µM	–	–	–
O=C(NC1=CC(=O)C2OC2C1O)c1ncccc1O.O=C(O)C(F)(F)F (racemic) [Example 13, (±)-3-hydroxy-N-(2-hydroxy-5-oxo-7-oxabicyclo[4.1.0]hept-3-en-3-yl)picolinamide trifluoroacetate]	–	–	–	–	–	10%	15%	–	–	–	–	9.2 µM	1400 nM	–	–	–	–	0%

Reference: patent publication US8629164B2, “Inhibitors of NF-κB” (Profectus Biosciences, Inc., priority 2009, dated 2014)
